Values after ≈ are worked out from the molar mass of the structure shown. Active and inactive are the calls of the source. The calls are words filed in the database; no cut-off is given here.
How the values were obtained:
[1] = tested on: Bugula neritina; assay: Antifouling activity against Bugula neritina larvae assessed as inhibition of larval settlement at 25 ug/ml after 1 hr by dissecting microscopy relative to control; format: functional
[2] = Antioxidant activity assessed as DPPH radical scavenging activity at 100 ug/ml after 30 mins; format: functional
[3] = tested on: Human alphaherpesvirus 1; assay: Antiviral activity against HSV-1 infected in African green monkey Vero cells by plaque reduction assay; format: functional; details: for EC50: Human alphaherpesvirus 1, Vero
[4] = Antioxidant activity assessed as DPPH radical scavenging activity after 30 mins; format: functional
[5] = tested on: Bugula neritina; assay: Antifouling activity against Bugula neritina assessed as inhibition of larval settlement after 1 hr by dissecting microscopy; format: functional
[6] = tested on: Bugula neritina; assay: Selectivity index, ratio of LC50 for Bugula neritina larvae to EC50 for antifouling activity against Bugula neritina larvae
[7] = Antioxidant activity assessed as ABTS radical cation scavenging activity by measuring trolox equivalents by ABTS radical cation decolorization assay; format: functional
[8] = Cytotoxicity against African green monkey Vero cells assessed as reduction in cell viability by MTT assay; format: cell-based; details: chlorocebus sabaeus

**Q.** For `COC(=O)c1c(C)cc(O)cc1O` [METHYL ORSELLINATE], which inhibition at 25 µg/mL [1] is on record?
**A.** 10 to 38%

**Q.** What about the Activity [2] of the same molecule?
**A.** < 50%

**Q.** What does the source list for `CCCCC[C@H](OC)c1c(O)cc2c(c1O)C(=O)c1c(O)cc(O)cc1C2=O`?
**A.** inhibition at 25 µg/mL [1]: 10 to 38%; Activity [2]: < 50%

**Q.** With `CC(=O)CC[C@H](CO)c1c(O)cc2c(c1O)C(=O)c1c(O)cc(O)cc1C2=O` as the molecule, how does the Activity [3] read?
**A.** inactive

**Q.** What about the inhibition at 25 µg/mL [1] of the same molecule?
**A.** 10 to 38%

**Q.** What about the Activity [2] of the same molecule?
**A.** < 50%

**Q.** Which IC50 [4] does the source give for `Cc1cc(O)cc(Oc2cc(C)cc(O)c2O)c1` [CORDYOL C] here?
**A.** 52.3 µM

**Q.** What about the inhibition at 25 µg/mL [1] of the same molecule?
**A.** 10 to 38%

**Q.** And the Activity [2]?
**A.** 81.3 to 92.8%

**Q.** Which inhibition at 25 µg/mL [1] does the source give for `O=C1c2cc(O)cc(O)c2C(=O)c2c1cc(O)c([C@@H](CO)CCO)c2O` here?
**A.** 10 to 38%

**Q.** What about the Activity [2] of the same molecule?
**A.** < 50%

**Q.** For `CCCCCC(c1c(C)cc(Oc2cc(C)cc(O)c2)cc1O)c1c(O)cc2c(c1O)C(=O)c1c(O)cc(O)cc1C2=O` (racemic) [listing 1 of 2 here], which inhibition at 25 µg/mL [1] is on record?
**A.** 10 to 38%

**Q.** Which results are given for `Cc1c(O)cc(CC(=O)C[C@H](C)O)c(C=O)c1O`?
**A.** inhibition at 25 µg/mL [1]: 72.4%; Activity [2]: < 50%; EC50 [5]: 3.4 µg/mL (≈ 13.5 µM); Selectivity Index [6]: >100

**Q.** What does the source list for `COC(=O)c1c(C)cc(Oc2cc(O)cc(C)c2C(=O)O)cc1O`?
**A.** inhibition at 25 µg/mL [1]: 10 to 38%; Activity [2]: < 50%

**Q.** With `Cc1c(O)cc2cc(C[C@H](C)O)oc(=O)c2c1O` as the molecule, how does the Activity [2] read?
**A.** < 50%

**Q.** Which results are given for `Cc1cc(O)c(Oc2cc(C)cc(O)c2O)c(O)c1`?
**A.** IC50 [4]: 31.2 µM; inhibition at 25 µg/mL [1]: 10 to 38%; Activity [2]: 81.3 to 92.8%

**Q.** Which inhibition at 25 µg/mL [1] does the source give for `CCCCCC(c1c(C)cc(O)cc1O)c1c(O)cc2c(c1O)C(=O)c1c(O)cc(Oc3cc(C)cc(O)c3)cc1C2=O` (racemic) [listing 1 of 2 here] here?
**A.** 10 to 38%

**Q.** With `CCCCCC(c1c(C)cc(Oc2cc(C)cc(O)c2)cc1O)c1c(O)cc2c(c1O)C(=O)c1c(O)cc(O)cc1C2=O` (stereo in doubt; (+)-7) as the molecule, how does the Activity [7] read?
**A.** 2.07 mmol/g

**Q.** Which results are given for `Cc1cc(O)cc(O)c1O`?
**A.** IC50 [4]: 35.1 µM; inhibition at 25 µg/mL [1]: 10 to 38%; Activity [2]: 81.3 to 92.8%

**Q.** Which inhibition at 25 µg/mL [1] does the source give for `Cc1cc(O)cc(OC(=O)c2c(C)cc(O)cc2O)c1` [LECANORIN] here?
**A.** 10 to 38%

**Q.** What about the Activity [2] of the same molecule?
**A.** < 50%

**Q.** For `Cc1cc(O)c(O)c(Oc2cc(C)cc(O)c2Oc2cc(C)cc(O)c2O)c1`, which IC50 [4] is on record?
**A.** 21.2 µM

**Q.** And the Activity [3]?
**A.** inactive

**Q.** What about the inhibition at 25 µg/mL [1] of the same molecule?
**A.** 80%

**Q.** What about the Activity [2] of the same molecule?
**A.** 81.3 to 92.8%

**Q.** And the EC50 [5]?
**A.** 2.61 µg/mL (≈ 6.79 µM)

**Q.** What about the “Selectivity Index” value [6] of the same molecule?
**A.** >100

**Q.** With `O=C1O[C@H]([C@@H](O)CO)C(O)=C1O` [ASCORBIC ACID] as the molecule, how does the IC50 [4] read?
**A.** 45.2 µM

**Q.** Which Activity [7] does the source give for `CCCCCC(c1c(O)cc(C)cc1Oc1cc(C)cc(O)c1)c1c(O)cc2c(c1O)C(=O)c1c(O)cc(O)cc1C2=O` (racemic) here?
**A.** 2.18 mmol/g

**Q.** And the Activity [3]?
**A.** inactive

**Q.** What about the Activity [2] of the same molecule?
**A.** < 50%

**Q.** Which results are given for `Cc1cc(OC(=O)c2c(C)cc(O)cc2O)cc(O)c1C(=O)O` [LECANORIC ACID]?
**A.** inhibition at 25 µg/mL [1]: 10 to 38%; Activity [2]: < 50%

**Q.** Which inhibition at 25 µg/mL [1] does the source give for `Cc1cc(O)cc(Oc2cc(C)cc(O)c2)c1` [DIORCINOL] here?
**A.** 10 to 38%

**Q.** What about the Activity [2] of the same molecule?
**A.** < 50%

**Q.** Which Activity [2] does the source give for `COC(C)CC(=O)Cc1cc(O)c(C)c(O)c1C=O` (racemic) here?
**A.** < 50%

**Q.** With `Cc1cc(O)c(Oc2cc(C)cc(Oc3cc(C)cc(O)c3O)c2O)c(O)c1` as the molecule, how does the IC50 [4] read?
**A.** 18.9 µM

**Q.** And the Activity [3]?
**A.** inactive

**Q.** What about the inhibition at 25 µg/mL [1] of the same molecule?
**A.** 85.3%

**Q.** What about the Activity [2] of the same molecule?
**A.** 81.3 to 92.8%

**Q.** And the EC50 [5]?
**A.** 1.59 µg/mL (≈ 4.14 µM)

**Q.** And the “Selectivity Index” value [6]?
**A.** >100

**Q.** With `Cc1cc(O)cc(O)c1` [ORCINOL] as the molecule, how does the inhibition at 25 µg/mL [1] read?
**A.** 10 to 38%

**Q.** And the Activity [2]?
**A.** < 50%

**Q.** With `CCCCCC(c1c(C)cc(O)cc1O)c1c(O)cc2c(c1O)C(=O)c1c(O)cc(Oc3cc(C)cc(O)c3)cc1C2=O` (racemic) [listing 2 of 2 here] as the molecule, how does the Activity [7] read?
**A.** 2.27 mmol/g

**Q.** And the Activity [3]?
**A.** inactive

**Q.** And the Activity [2]?
**A.** < 50%

**Q.** Which results are given for `COC(=O)c1c(O)ccc2oc3cc(C)cc(O)c3c(=O)c12`?
**A.** inhibition at 25 µg/mL [1]: 10 to 38%; Activity [2]: < 50%

**Q.** With `CC(=O)CCCC(c1c(C)cc(Oc2cc(C)cc(O)c2)cc1O)c1c(O)cc2c(c1O)C(=O)c1c(O)cc(O)cc1C2=O` (racemic) as the molecule, how does the CC50 [8] read?
**A.** 109 µM

**Q.** What about the Activity [7] of the same molecule?
**A.** 2.03 mmol/g

**Q.** And the EC50 [3]?
**A.** 4.68 µM

**Q.** And the Activity [2]?
**A.** < 50%

**Q.** With `CC(=O)CC[C@H](COC(C)=O)c1c(O)cc2c(c1O)C(=O)c1c(O)cc(O)cc1C2=O` as the molecule, how does the CC50 [8] read?
**A.** 65.1 µM

**Q.** What about the EC50 [3] of the same molecule?
**A.** 3.12 µM

**Q.** What about the inhibition at 25 µg/mL [1] of the same molecule?
**A.** 10 to 38%

**Q.** What about the Activity [2] of the same molecule?
**A.** < 50%

**Q.** For `Cc1cc(O)cc(O)c1C(=O)O` [ORSELLINIC ACID], which inhibition at 25 µg/mL [1] is on record?
**A.** 10 to 38%

**Q.** What about the Activity [2] of the same molecule?
**A.** < 50%

**Q.** With `CCCCCC(c1c(C)cc(Oc2cc(C)cc(O)c2)cc1O)c1c(O)cc2c(c1O)C(=O)c1c(O)cc(O)cc1C2=O` (racemic) [listing 2 of 2 here] as the molecule, how does the Activity [7] read?
**A.** 2.11 mmol/g

**Q.** What about the Activity [3] of the same molecule?
**A.** inactive

**Q.** What about the Activity [2] of the same molecule?
**A.** < 50%

**Q.** With `CCCCCC(c1c(C)cc(Oc2cc(C)cc(O)c2)cc1O)c1c(O)cc2c(c1O)C(=O)c1c(O)cc(O)cc1C2=O` (stereo in doubt; (-)-7) as the molecule, how does the Activity [7] read?
**A.** 1.53 to 2 mmol/g

**Q.** Which IC50 [4] does the source give for `Cc1cc(O)c(Oc2cc(C)cc(O)c2Oc2cc(C)cc(O)c2O)c(O)c1` here?
**A.** 25.2 µM

**Q.** And the Activity [3]?
**A.** inactive

**Q.** And the inhibition at 25 µg/mL [1]?
**A.** 70.6%

**Q.** And the Activity [2]?
**A.** 81.3 to 92.8%

**Q.** What about the EC50 [5] of the same molecule?
**A.** 5.48 µg/mL (≈ 14.3 µM)

**Q.** What about the “Selectivity Index” value [6] of the same molecule?
**A.** >100

**Q.** Which inhibition at 25 µg/mL [1] does the source give for `Cc1cc(O)cc(Oc2cc(C)c(C(=O)OCC(O)CO)c(O)c2)c1` (racemic) here?
**A.** 91.2%

**Q.** And the Activity [2]?
**A.** < 50%

**Q.** What about the EC50 [5] of the same molecule?
**A.** 1.28 µg/mL (≈ 3.67 µM)

**Q.** What about the “Selectivity Index” value [6] of the same molecule?
**A.** >100

**Q.** For `CCCCCC(c1c(C)cc(O)cc1O)c1c(O)cc2c(c1O)C(=O)c1c(O)cc(Oc3cc(C)cc(O)c3)cc1C2=O` (stereo in doubt; (-)-6), which Activity [7] is on record?
**A.** 1.65 mmol/g

**Q.** Which CC50 [8] does the source give for `C[C@H](O)CC[C@H](CO)c1c(O)cc2c(c1O)C(=O)c1c(O)cc(O)cc1C2=O` here?
**A.** 50.7 µM

**Q.** And the EC50 [3]?
**A.** 6.25 µM

**Q.** And the Activity [2]?
**A.** < 50%

**Q.** For `C[C@]12CCC[C@@H](O1)c1c(cc3c(c1O)C(=O)c1c(O)cc(O)cc1C3=O)O2`, which inhibition at 25 µg/mL [1] is on record?
**A.** 10 to 38%

**Q.** What about the Activity [2] of the same molecule?
**A.** < 50%

**Q.** With `Nc1nc2c(ncn2COCCO)c(=O)[nH]1` [ACYCLOVIR] as the molecule, how does the CC50 [8] read?
**A.** > 1000 µM

**Q.** And the EC50 [3]?
**A.** 3 µM

— ChEMBL document CHEMBL4000243, “Anti-HSV-1, antioxidant and antifouling phenolic compounds from the deep-sea-derived fungus Aspergillus versicolor SCSIO 41502” (Bioorg Med Chem Lett, 2017)
